These results are taken from patent US20240216319A1, “TUMOR SUPPRESSANT AND PAIN RELIEF COMPOSITION FOR ORAL ADMINISTRATION” (priority 2022, published 2024).

Each structure is given as a SMILES string.

The subject of the assay is bladder cancer. Particulars: bladder cancer subject on chemotherapy.

Consider `C=C(C)[C@H]1CC=C(C)CC1` [d-limonene], for which, where the note is “earlier tumors 3 cm to 5 cm, then millimeter-sized”, the “reduction of tumor size at subsequent surgical procedure” value is on record as “about 10 foled”. The “tumor morphology at subsequent surgical procedure” value (tumors still present) was “ill-defined and amorphous”.
